According to PubChem BioAssay (NCI):
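Growth conditions: 96-well plates. Treatment: test compound, 48 hours, 5 concentrations. Analysis: linear interpolation between bracketing concentrations; unreached endpoints set to highest concentration. TGI denotes the concentration required for complete inhibition of growth.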

What follows are compounds tested on CAKI-1 renal (assay: inhibition of tumour cell growth, NCI panel, 48 h).
[N-]=[N+]=NCc1nc(N)c2c3c(sc2n1)CCCC3 gave a TGI of 8.32 µM. For CCOC(=O)C(CCN1CCC2(CC1)C(=O)N(C)CN2c1ccccc1)C(=O)OCC, the TGI was > 100 µM. Cc1cc(/N=C/c2ccc(F)cc2)n(-c2ccccc2)n1 was tested, and the TGI was > 100 µM. COC1=C(Br)[C@H](O)[C@@]2(C=C1Br)CC(C(=O)NCCCOc1c(Br)cc(C(O)CNC(C)=O)cc1Br)=NO2 (stereo not given in full) was tested, and the TGI was > 10 µM. COc1ccc(C[C@H]2COC(=O)[C@@H]2Cc2cccc(Br)c2)cc1OC showed a TGI of 30 µM. CCOC(=O)/C=C(/C(=O)OCC)n1cnc2c(=O)[nH]c(NC(C)=O)nc21 was tested, and the TGI was > 100 µM. In the case of COc1cccc(C2c3cc4c(cc3OC(C)(N3CCCC3)C2C)OCO4)c1 (stereo not given), the TGI is reported as 59.8 µM. With O=C1NC(N/N=C\C(O)C(O)C(O)C(O)CO)=N/C1=C/c1ccc(Cl)cc1 (stereo not given) the TGI was > 100 µM. With CC(Oc1ccc(Cl)cc1Cl)C(=O)NN1C(=O)CSC1c1ccccc1 (stereo not given) the TGI was 40 µM. CCOC(=O)/C=C(\C(=O)OCC)n1ccc(=O)n(Cc2cn(CCCCOC(C)=O)nn2)c1=O showed a TGI of 8.57 µM. For CC1=C(/C=C/C(C)=C/C=C/C(C)=C/C(=O)OC2CC(n3cc(F)c(=O)[nH]c3=O)OC2CO)C(C)(C)CCC1 (stereo not given), the TGI was 16.9 µM. With Cc1cc(C(F)(F)F)cc(-n2nc(NS(=O)(=O)c3cc(C)c(Cl)cc3S)nc2N)n1 the TGI was > 100 µM. For CC1CN=C(N(C(=O)Nc2ccccc2)c2ccc(Cl)c(Cl)c2)S1 (stereo not given), the TGI was > 100 µM. Compound CC(C)(C)[Si](C)(C)Oc1ccc(C2CNC(=O)C23CCC(=O)N3Cc2ccccc2)cc1 (stereo not given) has a TGI of 45 µM.

What follows are compounds tested on K-562 leukemia (assay: inhibition of tumour cell growth, NCI panel, 48 h).
With [N-]=[N+]=NCc1nc(N)c2c3c(sc2n1)CCCC3 the TGI was > 40.6 µM. For CCOC(=O)C(CCN1CCC2(CC1)C(=O)N(C)CN2c1ccccc1)C(=O)OCC, the TGI was > 100 µM. With Cc1cc(/N=C/c2ccc(F)cc2)n(-c2ccccc2)n1 the TGI was > 100 µM. For COC1=C(Br)[C@H](O)[C@@]2(C=C1Br)CC(C(=O)NCCCOc1c(Br)cc(C(O)CNC(C)=O)cc1Br)=NO2 (stereo not given in full), the TGI was > 10 µM. COc1ccc(C[C@H]2COC(=O)[C@@H]2Cc2cccc(Br)c2)cc1OC was tested, and the TGI was > 100 µM. CCOC(=O)/C=C(/C(=O)OCC)n1cnc2c(=O)[nH]c(NC(C)=O)nc21 was tested, and the TGI was > 100 µM. With COc1cccc(C2c3cc4c(cc3OC(C)(N3CCCC3)C2C)OCO4)c1 (stereo not given) the TGI was > 100 µM. For O=C1NC(N/N=C\C(O)C(O)C(O)C(O)CO)=N/C1=C/c1ccc(Cl)cc1 (stereo not given), the TGI was > 100 µM. With CC(Oc1ccc(Cl)cc1Cl)C(=O)NN1C(=O)CSC1c1ccccc1 (stereo not given) the TGI was > 100 µM. In the case of CCOC(=O)/C=C(\C(=O)OCC)n1ccc(=O)n(Cc2cn(CCCCOC(C)=O)nn2)c1=O, the TGI is reported as > 34.1 µM. For CC1=C(/C=C/C(C)=C/C=C/C(C)=C/C(=O)OC2CC(n3cc(F)c(=O)[nH]c3=O)OC2CO)C(C)(C)CCC1 (stereo not given), the TGI was 14 µM. For Cc1cc(C(F)(F)F)cc(-n2nc(NS(=O)(=O)c3cc(C)c(Cl)cc3S)nc2N)n1, the TGI was > 100 µM. With CC1CN=C(N(C(=O)Nc2ccccc2)c2ccc(Cl)c(Cl)c2)S1 (stereo not given) the TGI was > 10 µM. For CC(C)(C)[Si](C)(C)Oc1ccc(C2CNC(=O)C23CCC(=O)N3Cc2ccccc2)cc1 (stereo not given), the TGI was > 100 µM.

What follows are compounds tested on MDA-N (assay: inhibition of tumour cell growth, NCI panel, 48 h).
With [N-]=[N+]=NCc1nc(N)c2c3c(sc2n1)CCCC3 the TGI was 13.9 µM. In the case of CCOC(=O)C(CCN1CCC2(CC1)C(=O)N(C)CN2c1ccccc1)C(=O)OCC, the TGI is reported as > 100 µM. Cc1cc(/N=C/c2ccc(F)cc2)n(-c2ccccc2)n1 was tested, and the TGI was > 100 µM. Compound COC1=C(Br)[C@H](O)[C@@]2(C=C1Br)CC(C(=O)NCCCOc1c(Br)cc(C(O)CNC(C)=O)cc1Br)=NO2 (stereo not given in full) has a TGI of 4.4 µM. In the case of COc1ccc(C[C@H]2COC(=O)[C@@H]2Cc2cccc(Br)c2)cc1OC, the TGI is reported as 60.1 µM. CCOC(=O)/C=C(/C(=O)OCC)n1cnc2c(=O)[nH]c(NC(C)=O)nc21 was tested, and the TGI was > 100 µM. For COc1cccc(C2c3cc4c(cc3OC(C)(N3CCCC3)C2C)OCO4)c1 (stereo not given), the TGI was 4.02 µM. With O=C1NC(N/N=C\C(O)C(O)C(O)C(O)CO)=N/C1=C/c1ccc(Cl)cc1 (stereo not given) the TGI was > 100 µM. CC(Oc1ccc(Cl)cc1Cl)C(=O)NN1C(=O)CSC1c1ccccc1 (stereo not given) was tested, and the TGI was > 100 µM. Compound CCOC(=O)/C=C(\C(=O)OCC)n1ccc(=O)n(Cc2cn(CCCCOC(C)=O)nn2)c1=O has a TGI of 42.6 µM. For CC1=C(/C=C/C(C)=C/C=C/C(C)=C/C(=O)OC2CC(n3cc(F)c(=O)[nH]c3=O)OC2CO)C(C)(C)CCC1 (stereo not given), the TGI was 23.2 µM. In the case of Cc1cc(C(F)(F)F)cc(-n2nc(NS(=O)(=O)c3cc(C)c(Cl)cc3S)nc2N)n1, the TGI is reported as > 100 µM. For CC1CN=C(N(C(=O)Nc2ccccc2)c2ccc(Cl)c(Cl)c2)S1 (stereo not given), the TGI was > 10 µM. CC(C)(C)[Si](C)(C)Oc1ccc(C2CNC(=O)C23CCC(=O)N3Cc2ccccc2)cc1 (stereo not given) gave a TGI of 27.3 µM.

What follows are compounds tested on SNB-75 CNS (assay: inhibition of tumour cell growth, NCI panel, 48 h).
For [N-]=[N+]=NCc1nc(N)c2c3c(sc2n1)CCCC3, the TGI was 20.9 µM. For CCOC(=O)C(CCN1CCC2(CC1)C(=O)N(C)CN2c1ccccc1)C(=O)OCC, the TGI was > 100 µM. Cc1cc(/N=C/c2ccc(F)cc2)n(-c2ccccc2)n1 was tested, and the TGI was > 100 µM. For COC1=C(Br)[C@H](O)[C@@]2(C=C1Br)CC(C(=O)NCCCOc1c(Br)cc(C(O)CNC(C)=O)cc1Br)=NO2 (stereo not given in full), the TGI was > 10 µM. Compound COc1ccc(C[C@H]2COC(=O)[C@@H]2Cc2cccc(Br)c2)cc1OC has a TGI of 55.5 µM. In the case of CCOC(=O)/C=C(/C(=O)OCC)n1cnc2c(=O)[nH]c(NC(C)=O)nc21, the TGI is reported as > 100 µM. COc1cccc(C2c3cc4c(cc3OC(C)(N3CCCC3)C2C)OCO4)c1 (stereo not given) showed a TGI of 26.5 µM. In the case of O=C1NC(N/N=C\C(O)C(O)C(O)C(O)CO)=N/C1=C/c1ccc(Cl)cc1 (stereo not given), the TGI is reported as > 100 µM. CC(Oc1ccc(Cl)cc1Cl)C(=O)NN1C(=O)CSC1c1ccccc1 (stereo not given) was tested, and the TGI was > 100 µM. In the case of CCOC(=O)/C=C(\C(=O)OCC)n1ccc(=O)n(Cc2cn(CCCCOC(C)=O)nn2)c1=O, the TGI is reported as 41.8 µM. For CC1=C(/C=C/C(C)=C/C=C/C(C)=C/C(=O)OC2CC(n3cc(F)c(=O)[nH]c3=O)OC2CO)C(C)(C)CCC1 (stereo not given), the TGI was 18.6 µM. Cc1cc(C(F)(F)F)cc(-n2nc(NS(=O)(=O)c3cc(C)c(Cl)cc3S)nc2N)n1 was tested, and the TGI was > 100 µM. In the case of CC1CN=C(N(C(=O)Nc2ccccc2)c2ccc(Cl)c(Cl)c2)S1 (stereo not given), the TGI is reported as > 100 µM. Work on CC(C)(C)[Si](C)(C)Oc1ccc(C2CNC(=O)C23CCC(=O)N3Cc2ccccc2)cc1 (stereo not given) yielded a TGI of 32.1 µM.

The compounds below were run on UACC-257 melanoma (assay: inhibition of tumour cell growth, NCI panel, 48 h).
For [N-]=[N+]=NCc1nc(N)c2c3c(sc2n1)CCCC3, the TGI was 25.8 µM. CCOC(=O)C(CCN1CCC2(CC1)C(=O)N(C)CN2c1ccccc1)C(=O)OCC was tested, and the TGI was > 100 µM. Cc1cc(/N=C/c2ccc(F)cc2)n(-c2ccccc2)n1 was tested, and the TGI was > 100 µM. COC1=C(Br)[C@H](O)[C@@]2(C=C1Br)CC(C(=O)NCCCOc1c(Br)cc(C(O)CNC(C)=O)cc1Br)=NO2 (stereo not given in full) was tested, and the TGI was > 10 µM. Work on COc1ccc(C[C@H]2COC(=O)[C@@H]2Cc2cccc(Br)c2)cc1OC yielded a TGI of 56.2 µM. For CCOC(=O)/C=C(/C(=O)OCC)n1cnc2c(=O)[nH]c(NC(C)=O)nc21, the TGI was > 100 µM. COc1cccc(C2c3cc4c(cc3OC(C)(N3CCCC3)C2C)OCO4)c1 (stereo not given) was tested, and the TGI was 70 µM. In the case of O=C1NC(N/N=C\C(O)C(O)C(O)C(O)CO)=N/C1=C/c1ccc(Cl)cc1 (stereo not given), the TGI is reported as > 100 µM. For CC(Oc1ccc(Cl)cc1Cl)C(=O)NN1C(=O)CSC1c1ccccc1 (stereo not given), the TGI was > 100 µM. CCOC(=O)/C=C(\C(=O)OCC)n1ccc(=O)n(Cc2cn(CCCCOC(C)=O)nn2)c1=O was tested, and the TGI was 32.9 µM. CC1=C(/C=C/C(C)=C/C=C/C(C)=C/C(=O)OC2CC(n3cc(F)c(=O)[nH]c3=O)OC2CO)C(C)(C)CCC1 (stereo not given) showed a TGI of 29.6 µM. In the case of Cc1cc(C(F)(F)F)cc(-n2nc(NS(=O)(=O)c3cc(C)c(Cl)cc3S)nc2N)n1, the TGI is reported as > 100 µM. With CC1CN=C(N(C(=O)Nc2ccccc2)c2ccc(Cl)c(Cl)c2)S1 (stereo not given) the TGI was > 100 µM. Compound CC(C)(C)[Si](C)(C)Oc1ccc(C2CNC(=O)C23CCC(=O)N3Cc2ccccc2)cc1 (stereo not given) has a TGI of 25.7 µM.
